Test results reported in patent EP0396400A1, “Microbial transformation product” (Merck & Co., Inc., priority 1989, dated 1990).

Tested on: mouse T lymphocytes
Assay: T-cell proliferation assay (ionomycin plus PMA induced T-cell stimulation, tritiated thymidine uptake)
Type: cell-based, C57B1/6 mice
Conditions: T-lymphocyte, 10 ng/ml, standard
Experimental: The principle of this assay is to measure the proliferation of mouse T lymphocytes stimulated with the combination of ionomycin plus PMA. A positive sample in this assay will inhibit T-cell proliferation, as indicated by reduced tritiated thymidine uptake.
Cells were pelleted by centrifugation at 1500 rpm for 8 minutes. Contaminating red cells were removed by treating the pellet with ammonium chloride lysing buffer (GIBCO) for 2 minutes at 4°C. Cold medium was added and cells were again centrifuged at 1500 rpm for 8 minutes. T lymphocytes were then isolated by separation of the cell suspension on nylon wool columns as follows: Nylon wool columns were prepared by packing approximately 4 grams of washed and dried nylon wool into 20 ml plastic syringes. The columns were sterilized by autoclaving at 250°F for 30 minutes. […]
The cell suspension was immediately distributed into 96 well flat-bottom microculture plates (Costar) at 200 µl/well. […] The proliferation of T lymphocytes was assessed by measurement of tritiated thymidine incorporation. […] Radioactivity of filter discs corresponding to individual wells was measured by standard liquid scintillation counting methods (Betacounter). Mean counts per minute of replicate wells were calculated and the results expressed as percent inhibition of tritiated thymidine uptake (proliferation) as follows: [formula]

Q: How did the inhibition at 0.01 µg/mL turn out when `C=CC[C@@H]1/C=C(\C)C[C@H](C)C[C@H](OC)[C@H]2O[C@@](O)(C(=O)C(=O)N3CCCC[C@H]3C(=O)O[C@H](/C(C)=C/[C@@H]3CC[C@@H](O)[C@H](OC)C3)[C@H](C)[C@@H](O)CC1=O)[C@H](C)C[C@@H]2OC` [L-679,934] was run?
A: 99%
